Laboratory results as given in publication PMC7445743 (Journal of Medicinal Chemistry, 2020).
Structures can show the parent of a compound that is named as a salt.

Tests used:
SYK [1] = biological target: T1, SYK (Homo sapiens, UniProt P43405); test: biochemical; details: read-out: Tm shift SYK
CAMK1G = CAMK1G (Homo sapiens, UniProt Q96NX5); details: supplement CSV
CAMK2A = CAMK2A (Homo sapiens, UniProt Q9UQM7); details: supplement CSV
SYK [2] = biological target: T1, SYK; details: supplement CSV
[3] = tested on: diet induced obesity mouse model; test: OGTT in DIO mice, acute dosing study; type: in vivo, male C57Bl/6J mice; details: single oral dose of 25 or 50 mg/kg 4 h prior to OGTT, vs vehicle
Procedure: Animals were allocated to dosing groups (6 mice per group) such that groups were balanced as closely as possible for mean body weight. The day prior to the OGTT, all animals were deprived of food (but not water) beginning approximately 16:45. The following morning, the mice were dosed with vehicle or either 10 mg/kg, 25 mg/kg, or 50 mg/kg 18 formulated in a vehicle of DMSO (10% final volume) and 20% (2-hydroxypropyl)-β-cyclodextrin (90% final volume) by the oral route (beginning at 08:45). Four hours after dosing, a blood sample was taken (B1), and 3 min later glucose was administered (2 g/kg orally). Further blood samples were taken 10, 30, 60, and 90 min after glucose administration. Between blood sampling, animals were returned to the home cage with free access to water (but not food). Blood samples (approximately 30 μL) were collected into lithium heparinized tubes (Sarstedt Microvette CB300LH), and plasma was separated by centrifugation to produce a single aliquot of plasma, which was frozen (approximately −80 °C) and subsequently assayed for glucose (in duplicate; Thermoelectron Infinity glucose reagent TR15498) and insulin (single replicate; Alpco mouse ultrasensitive insulin kit 80, INSMSU-E10).

[4] = Microsome metabolism (MICs)
[5] = Microsome metabolism (MICs); remark: listed apart in the source
[6] = tested on: kinase panel (468 Assays Tested); test: Pan-kinome selectivity, competitive binding assay (KINOMEscan); details: for S-Score(35): 1 μM
[7] = tested on: diet induced obesity mouse model; test: OGTT in DIO mice, chronic (14 day) dosing study; type: in vivo, male C57Bl/6J mice; details: twice daily for 14 days (25 mg/kg)
Procedure: Upon completion of the OGTT, all animals were singly housed with food provided as above for 2 weeks prior to the onset of the baseline phase of the chronic study. Upon single housing after the OGTT, mice were placed on a reverse-phase light–dark cycle (lights off 09:30–17:30). Following this period, the animals underwent a 5-day baseline phase where they were dosed twice daily with vehicle at approximately 08:45 and 16:45 each day. Toward the end of the baseline phase mice were reallocated to dosing groups (8 animals per group) such that groups within the study were balanced as closely as possible for body weight, food and water intake, and previous treatment. From day 1 onward, mice were dosed orally twice daily with 25 mg/kg 18 formulated in a vehicle of DMSO (10% final volume) and 20% (2-hydroxypropyl)-β-cyclodextrin (90% final volume) on days 1–6 and 1% methyl cellulose at 5 mL/kg on subsequent days or twice daily orally with vehicle alone or subcutaneously with 0.1 mg/kg liraglutide (Bachem) formulated in pH 7.4 phosphate buffer solution. Oral dosing began at approximately 08:45 and 16:45, with subcutaneous dosing at 08:45 only. […] Plasma glucose and insulin data from the OGTTs were analyzed by robust regression with treatment as a factor and bleeding order and day 1 body weight as covariates. […]

PKNB(M.tuberculosis) = biological target: T2, PKNB(M.tuberculosis) (Mycobacterium tuberculosis, UniProt P9WI81); test: KINOMEscan; type: binding
T2 construct: purchased DiscoverX (Eurofins) KINOMEscan scanMAX; first lines in-house DSF / ADP-Glo

[8] = Microsome metabolism (MICs); remark: listed apart in the source
in vivo = details: male, Crl:CD Sprague-Dawley, rat, iv, 2 mg/kg
NGS mice = test: Tolerability study in NGS mice; type: in vivo; details: 40 mg/kg once daily for 21 days, 50:45:5 PEG400/water/ethanol
[9] = Hepatocyte metabolism (Heps); type: in vitro ADME
PAK4 = PAK4 (Homo sapiens, UniProt O96013); details: supplement CSV
in vitro [10] = details: mouse, plasma
in vitro [11] = details: human, plasma
in vitro [12] = details: rat, plasma

CAMK1G, sequence (Q96NX5 whole entry): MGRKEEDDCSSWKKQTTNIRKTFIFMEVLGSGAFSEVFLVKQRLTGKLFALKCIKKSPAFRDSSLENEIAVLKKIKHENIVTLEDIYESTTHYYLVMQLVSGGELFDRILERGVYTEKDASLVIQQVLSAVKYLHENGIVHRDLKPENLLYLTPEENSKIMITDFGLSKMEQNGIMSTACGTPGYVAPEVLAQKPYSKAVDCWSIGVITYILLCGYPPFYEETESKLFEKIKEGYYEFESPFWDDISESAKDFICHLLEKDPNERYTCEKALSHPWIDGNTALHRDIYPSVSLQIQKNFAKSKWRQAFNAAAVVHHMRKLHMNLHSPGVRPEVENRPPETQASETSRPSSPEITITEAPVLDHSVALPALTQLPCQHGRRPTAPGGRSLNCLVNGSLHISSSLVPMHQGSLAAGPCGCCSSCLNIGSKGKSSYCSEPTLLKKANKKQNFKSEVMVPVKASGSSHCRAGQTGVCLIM
T2 sequence (P9WI81 whole entry): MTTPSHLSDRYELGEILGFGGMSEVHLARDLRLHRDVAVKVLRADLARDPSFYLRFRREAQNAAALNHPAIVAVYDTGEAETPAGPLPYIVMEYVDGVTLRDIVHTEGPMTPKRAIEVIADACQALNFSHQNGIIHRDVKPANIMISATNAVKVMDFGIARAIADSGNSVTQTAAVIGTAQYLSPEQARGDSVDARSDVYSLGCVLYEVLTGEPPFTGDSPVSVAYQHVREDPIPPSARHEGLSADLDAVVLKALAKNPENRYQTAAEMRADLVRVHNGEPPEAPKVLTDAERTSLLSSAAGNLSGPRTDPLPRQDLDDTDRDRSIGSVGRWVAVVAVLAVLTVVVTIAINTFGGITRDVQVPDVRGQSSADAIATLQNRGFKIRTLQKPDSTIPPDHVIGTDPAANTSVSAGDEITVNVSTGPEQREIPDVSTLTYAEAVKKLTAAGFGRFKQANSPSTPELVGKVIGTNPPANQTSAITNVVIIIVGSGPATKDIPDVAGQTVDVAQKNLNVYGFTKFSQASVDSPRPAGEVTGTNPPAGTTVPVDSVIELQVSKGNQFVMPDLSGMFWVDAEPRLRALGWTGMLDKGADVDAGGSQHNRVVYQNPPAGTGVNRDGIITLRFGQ
CAMK2A, sequence (Q9UQM7 whole entry): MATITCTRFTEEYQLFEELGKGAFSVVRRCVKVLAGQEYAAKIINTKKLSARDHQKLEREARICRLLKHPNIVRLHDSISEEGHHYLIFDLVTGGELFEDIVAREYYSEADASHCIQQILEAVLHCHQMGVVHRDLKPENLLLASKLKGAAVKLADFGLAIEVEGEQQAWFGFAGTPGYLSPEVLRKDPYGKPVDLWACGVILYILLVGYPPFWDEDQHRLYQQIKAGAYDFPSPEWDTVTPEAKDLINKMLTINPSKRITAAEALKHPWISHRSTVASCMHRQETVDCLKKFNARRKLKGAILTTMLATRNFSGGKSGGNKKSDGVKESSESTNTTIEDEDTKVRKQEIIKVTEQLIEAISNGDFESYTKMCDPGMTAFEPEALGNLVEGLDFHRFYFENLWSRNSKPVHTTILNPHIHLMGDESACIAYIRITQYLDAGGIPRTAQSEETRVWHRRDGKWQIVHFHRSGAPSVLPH
PAK4, sequence (O96013 whole entry): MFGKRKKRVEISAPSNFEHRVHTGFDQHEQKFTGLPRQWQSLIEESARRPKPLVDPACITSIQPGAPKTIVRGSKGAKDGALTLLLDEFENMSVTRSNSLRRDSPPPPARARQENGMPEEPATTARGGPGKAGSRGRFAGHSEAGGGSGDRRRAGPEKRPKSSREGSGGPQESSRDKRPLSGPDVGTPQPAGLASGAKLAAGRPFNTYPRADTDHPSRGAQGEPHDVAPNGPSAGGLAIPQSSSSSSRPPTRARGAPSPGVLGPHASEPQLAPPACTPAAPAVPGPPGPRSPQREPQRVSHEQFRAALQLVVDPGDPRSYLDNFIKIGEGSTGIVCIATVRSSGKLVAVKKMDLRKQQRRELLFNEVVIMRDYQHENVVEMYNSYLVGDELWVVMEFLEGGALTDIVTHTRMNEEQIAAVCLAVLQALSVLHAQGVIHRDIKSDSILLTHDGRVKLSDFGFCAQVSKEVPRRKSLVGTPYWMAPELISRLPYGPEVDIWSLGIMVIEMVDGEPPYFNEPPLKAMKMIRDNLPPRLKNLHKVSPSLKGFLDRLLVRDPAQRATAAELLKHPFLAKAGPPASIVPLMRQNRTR

Structure (SMILES) | ΔTm at 10 µM (SYK [1]) [°C] | CAMK1G Tm (CAMK1G) | CAMK2A Tm (CAMK2A) | SYK Tm (SYK [2]) | glucose control and insulin sensitivity in OGTT [3] | rat MICs [4] [μL·min^–1·mg^–1] | human MICs [5] [μL·min^–1·mg^–1] | S-Score(35) [6] | Interactions Mapped ([6]; 468 Assays Tested) | baseline glucose and insulin levels, peak glucose following OGTT [7] | glucose AUCB2 [7] | remaining binding at 1 µM (PKNB(M.tuberculosis)) [%] | mouse MICs [8] [μL·min^–1·mg^–1] | clearance (in vivo) [mL/min/kg] | tolerability (NGS mice) | human Heps [9] [μL·min^–1 per 10^6 cells] | PAK4 Tm (PAK4) | fraction unbound (in vitro [10]) | fraction unbound (in vitro [11]) | fraction unbound (in vitro [12])
NC(=O)c1cnc(N2CCC[C@@H](N)C2)nc1Nc1cccc(C(F)(F)F)c1 [Compound 7, (R)-2-(3-Aminopiperidin-1-yl)-4-((3-(trifluoromethyl)phenyl)amino)pyrimidine-5-carboxamide Hydrochloride] | 6.82 | 6.58 0C | 1.17 0C | 6.82 0C |  |  |  |  |  |  |  |  |  |  |  |  |  |  |  | 
CC(C)(C#N)c1cc(Nc2nc(N3CCC[C@H](N)C3)ncc2C(N)=O)cc(C(C)(C)C#N)c1 [Compound 18, (S)-2-(3-Aminopiperidin-1-yl)-4-((3,5-bis(2-cyanopropan-2-yl)phenyl)amino)pyrimidine-5-carboxamide Hydrochloride] |  |  |  |  | improved glucose control and increased insulin sensitivity | < 1 | 13 | 0.03 | 23 | reduced baseline glucose and insulin levels, as well as reduced peak glucose levels | no effect | 84 | 15 |  |  |  |  |  |  | 
CC(C)c1cc(Nc2nc(N3CCC[C@H](N)C3)ncc2C(N)=O)cc(C(C)C)n1 [Compound 19, (S)-2-(3-Aminopiperidin-1-yl)-4-((2,6-diisopropylpyridin-4-yl)amino)pyrimidine-5-carboxamide] |  | 16.35 0C |  |  |  | 3 | 7 | 0.03 |  |  |  | 83 | 6 | 36.5 | no observable adverse effects | 19 | 3.31 0C | 0.06 | 0.11 | 0.08
